# Source: the METLIN SMRT retention time set (Domingo-Almenara et al. 2019)
# Experiment: gradient 5% acetonitrile 3 min, to 50% in 2 min, to 85% in 15 min, held 3 min, 100 µL/min
# Settings: column: Zorbax Extend-C18 2.1 x 50 mm; eluents: water / acetonitrile, 0.1% formic acid
# Procedure, shortened: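 Values are retention times taken from adduct peaks that software picked and an analyst inspected. The pure standards were run as mixtures of ~100 molecules on HPLC linked to a quadrupole time-of-flight mass spectrometer, in positive and negative ionization mode. A Zorbax Extend-C18 column (2.1 × 50 mm, 1.8 μm) was used at 100 μL/min with water and acetonitrile, each including 0.1% formic acid.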
row,SMILES,RP-LC retention time
1,CCN(CC)CCNC(=O)c1cc(S(=O)(=O)N2CCCCCC2)ccc1Cl,656 s
2,CCOc1ccc(S(=O)(=O)N2CCC(C(=O)NCc3csc(-c4ccccc4)n3)CC2)cc1,978 s
3,CCS(=O)(=O)N1CC(=O)N(c2ccc(C)c(C)c2)C(C)(C(=O)NCc2ccccc2)C1 (centres undefined),860 s
4,Cc1ccc(-c2coc(-c3ccc(NC(=O)c4cccs4)cc3)n2)cc1,1170 s
5,Cc1ccc(NC(=O)N2CCC(n3cnc4cccnc43)CC2)c(Cl)c1,676 s
6,Cn1c(=O)c(N2CCC(NC(=O)Nc3ccc(Cl)cc3)CC2)nc2cccnc21,907 s
7,COc1ccc(C2C(=O)N(CCc3ccccc3)CC(=O)N2Cc2ccc3c(c2)OCO3)cc1 (centres undefined),933 s
8,Cc1ccc(S(=O)(=O)N2CCC(c3nc(-c4cccc(-c5ccn[nH]5)c4)no3)CC2)cc1,971 s
9,N#Cc1ccc(-c2nc(-c3ccc4c(c3)ncn4CCN3CCCCC3)no2)cc1,632 s
10,Cc1ccc(S(=O)(=O)N2CCCC(Cn3c(C4CC4)nc4cccnc43)C2)cc1 (centres undefined),790 s
11,O=C(c1ccc(Br)o1)N1CCN(c2ccc(NCc3ccccc3)nn2)CC1,668 s
12,CCOC(=O)c1cc2n(n1)CC(C)(C(=O)NC1CCCC1)N(c1ccccc1F)C2=O (centres undefined),876 s
13,O=C(NC1CC1)c1ccc(OCC2CCCN2C(=O)c2c(F)cccc2F)cc1 (centres undefined),741 s
14,O=C(C1CC1)N1CCc2sc(S(=O)(=O)NCc3cccs3)cc2C1,794 s
15,CN(C)c1ccc(N2C=C(C(=O)N3CCCCC3)S(=O)(=O)c3ccccc32)cc1,898 s
16,Cc1noc([C@@H]2CC(F)(F)CN2C(=O)c2cnco2)n1,667 s
17,COc1cccc(C(=O)N2CCC(c3cc(N)on3)CC2)c1OC,639 s
18,Cc1sc(-c2cc(C(F)(F)F)[nH]n2)cc1S(=O)(=O)N1CCN(c2ccccn2)CC1,752 s
19,CC(C)NCC(O)c1ccc(N)c(C#N)c1 (centres undefined),563 s
20,O=C(NCCc1csc(-c2cccs2)n1)C1CCN(S(=O)(=O)c2cccc(Cl)c2)CC1,975 s
21,COCCCn1c(=O)c2ccccc2n(Cc2nc(-c3ccc(Cl)cc3)no2)c1=O,1070 s
22,O=C(c1cccs1)N1CCC(c2nnc(-c3ccc(F)cc3)o2)CC1,733 s
23,CCOC(=O)c1cnc2c(-c3cccc(Cl)c3)c(COC)nn2c1N,1150 s

row,SMILES,RP-LC retention time
1,CCn1cnnc1C1CCCCN1S(=O)(=O)c1ccccc1F (centres undefined),706 s
2,O=C(NCc1ccccc1Cl)C(=O)Nc1cccc(N2CCCCC2=O)c1,751 s
3,O=C(NCc1ccncc1)c1cc2cc(Cl)ccc2[nH]1,618 s
4,Cc1ccc(Nc2nc(-c3cc(C)c(C)cc3C)cs2)nc1,1010 s
5,COc1ccccc1CN1CC(F)(F)C[C@H]1COc1ccncc1,623 s
6,COc1ccc(NC(=O)c2cnc(N3CCN(C)CC3)nc2N)cc1,578 s
7,Cc1ccc(NC(=O)C2CCN(S(=O)(=O)c3cn(C)cn3)CC2)cc1C,734 s
8,CCCCN(CC)CCNC(=O)C1CCCN(c2ncnc3c2nc2n3CCCCC2)C1 (centres undefined),614 s
9,CCN1C(=O)COc2ccc(-c3noc(/C=C/c4ccc(OC)c(OC)c4)n3)cc21,1050 s
10,O=c1c2cc(-c3ccc(F)cc3)nn2ccn1Cc1noc(CN2CCCC2)n1,638 s
11,COCCN1C(=O)Cc2ccccc2C1C(=O)NCc1ccc(Cl)cc1 (centres undefined),898 s
12,CCCN1CCN(C(=O)C2CCN(S(=O)(=O)c3ccc4c(c3)sc(=O)n4C(C)C)CC2)CC1,665 s
13,CC1CCc2nc3ncn(CC(=O)Nc4ccc(Cl)cc4F)c(=O)c3cc2C1 (centres undefined),858 s
14,CC1CCN(c2cc3c(cc2NC(=O)COc2ccc(Cl)cc2)n(C)c(=O)c(=O)n3C)CC1,1120 s
15,Cc1ccc(-c2nc(-c3ccc4nncn4c3)no2)cc1F,764 s
16,Cn1cc(CN2CCC(C(=O)N3CCN(c4ccccc4F)CC3)CC2)c2cc(Cl)ccc21,794 s
17,Cc1cc(C)c(NC(=O)/C=C/c2ccccc2)c(C)c1,898 s
18,Cc1sc(-c2nnc(C(=O)N3CCCC3)o2)cc1S(=O)(=O)NCc1cccnc1,1310 s
19,NC(=O)C1CCN(C(=O)c2nnn(-c3ccccc3Cl)c2-c2ccncc2)CC1,603 s
20,C[C@@H]1CN(C(=O)c2ccoc2)C[C@H]1c1nc(-c2ccccc2)no1,879 s
21,O=C(CN1CCN(Cc2ccccc2F)C1=O)N1CCN(c2ccccc2F)CC1,857 s
22,CC(C)c1nc2ccc(CCC(=O)NC(C)c3ccccc3)cc2[nH]1 (centres undefined),610 s
23,O=C(c1ccccn1)N1CCC(n2nc(-c3ccsc3)ccc2=O)CC1,641 s

row,SMILES,RP-LC retention time
1,COc1ccccc1-c1nc2cnccn2c1NCCC(=O)NC1CCCCC1,673 s
2,Cc1cc(NS(=O)(=O)c2cc3n(c2)CCCNC3=O)ccc1F,671 s
3,O=C(Cc1cccs1)NCc1nnnn1-c1ccc(Cl)cc1,747 s
4,CC1=NS(=O)(=O)N(Cc2ccccc2)C=C1C(=O)OCc1nc(-c2ccccc2)no1,1120 s
5,COc1ccc(C2CCCN2C(=O)c2cccs2)cc1 (centres undefined),888 s
6,COc1ccc(OCc2nc(-c3cccc(-c4ccnn4C)c3)no2)cc1,1010 s
7,CCOC(=O)c1c(CN2CCCC2)n(C)c2cc(-c3ccncc3)c3c(c12)CN(C)CO3,730 s
8,Cc1ccc(NC(=O)c2nc(C)oc2C)c(C)c1,753 s
9,COCCNC(=O)Nc1nc(CSCc2cc(OC)cc(OC)c2)cs1,734 s
10,Cn1ccc(C(=O)Nc2sccc2C(N)=O)n1,623 s
11,O=[N+]([O-])c1ccc(CSc2nnc(-c3ccncc3)n2-c2ccccc2)cc1,706 s
12,Cn1cc(-c2nnc(SCC(=O)N3CCc4ccccc43)n2C)c(-c2ccccc2)n1,766 s
13,Cn1cnc2cc(-c3noc(CNC(=O)c4ccco4)n3)ccc21,585 s
14,O=S(=O)(c1ccccc1F)N1CCC(c2noc(-c3ccccc3)n2)CC1,1020 s
15,COc1ccc2[nH]c(=O)c(CCC(=O)NCCN3CCc4ccccc4C3)cc2c1,623 s
16,O=C(Nc1ccc(Cl)cc1)N1CCN(c2nc3ccccc3nc2C(F)(F)F)CC1,1150 s
17,CC(C)n1cnc(S(=O)(=O)N2CCCC(C(=O)N3CCN(c4ccccc4)CC3)C2)c1 (centres undefined),766 s
18,CN1C(=O)c2cc(C(=O)NCCc3ccccc3)nn2CC1(C)C(=O)NC1CCCC1 (centres undefined),761 s
19,CCCn1cc(C(=O)Nc2cc(OC)ccc2OC)c(=O)c2ccc(C)nc21,1090 s
20,CC(C)CN1CCN(Cc2nc(Cn3ccn4nc(-c5ccccc5)cc4c3=O)no2)CC1,665 s
21,CCc1cc(-c2csc(S(=O)(=O)N(Cc3ccccc3)C(C)C)c2)on1,1170 s
22,CCCN1CCCCc2cc(C(=O)NCC(F)F)sc21,932 s
23,COc1ccc(N2CCN(C(=O)C3CCCN(c4nccc5sc(C)cc45)C3)CC2)cc1 (centres undefined),676 s

row,SMILES,RP-LC retention time
1,CCN(Cc1ccncc1)C1CN(C(=O)NCc2ccc(C)cc2)C1,591 s
2,COc1nn(C)cc1C(=O)Nc1nnc(-c2cc(C)oc2C)o1,666 s
3,COC(=O)CCNC(=O)C1c2ccccc2C(=O)N(C2CCCC2)C12CCCCC2 (centres undefined),903 s
4,CC(C)CNC(=O)CCC(=O)N1c2ccccc2NC2=C(C(=O)CC(C)(C)C2)C1c1ccco1 (centres undefined),743 s
5,Cc1cc(C)n(CC(=O)N2CCCn3ccnc3C2c2cnn(C)c2)n1 (centres undefined),556 s
6,CN(C)c1ccc(C(=O)N2CCCC2c2nc(-c3ccc(F)cc3F)no2)cc1 (centres undefined),984 s
7,CCN1CCN(CCCNC(=O)C2CCCN(c3nc4cccnc4s3)C2)CC1 (centres undefined),552 s
8,CC(=O)N1CCc2sc(C(=O)NCc3ccccc3Br)cc2C1,770 s
9,COc1ccc(N2CCN(C(=O)CN3C(=O)NC4(CCCCC4)C3=O)CC2)cc1,694 s
10,OC(CNCc1ccc(-c2ccc(Br)cc2)o1)c1ccccc1 (centres undefined),755 s
11,CCn1nccc1C(=O)N1CCC2(CC1)C(=O)N(C)c1ccccc12,630 s
12,Cc1[nH]c(C(=O)N2CCCC(C(=O)NCc3ccc4c(c3)OCO4)C2)c(C)c1C (centres undefined),804 s
13,CC1=C(c2ccc(C)c(C)c2)S(=O)(=O)N=C1N1CCC(C(=O)NCCN2CCOCC2)CC1,648 s
14,Cn1c(=O)n(CC(=O)N2CCc3ccccc3C2)c(=O)c2cnc(-c3ccc(Cl)cc3)nc21,1140 s
15,Nc1nc(N2CCN(c3ccccc3F)CC2)ncc1C(=O)Nc1ccccc1,821 s
16,CCN1C(=O)C(C)(C(=O)NCc2ccc(F)c(Cl)c2)Oc2cccnc21 (centres undefined),902 s
17,CCc1nnc(NC(=O)C2CCCN(c3ncnc4c3nc3n4CCCCC3)C2)s1 (centres undefined),724 s
18,CC(C)NC(=O)CCC1CCN(c2cc(NC3CC3)ncn2)CC1,551 s
19,Cn1cnc2c(C(=O)N3CCN(c4ncccn4)CC3)nn(-c3ccc(Cl)cc3)c2c1=O,766 s
20,CC(C)CN1CCn2cc(C(=O)NCc3ccc(F)cc3F)nc2C1,608 s
